Data taken from USRE38132E1, “Phenylpyrrolidines, phenylimidazolidines,3-phenyl-1,3-oxizolidines and 3-phenyl-1,3-thiazolidines and their use in the treatment of inflammatory disease” (Boehringer Ingelheim Pharmaceuticals, Inc., priority 1997, dated 2003).
pIC50, pKd: −log10 of the molar value.

Assays:
[1] = test system: SKW3 cells
From the text: MMT Assay to Determine Cytotoxicity
MTT, (3-(4,5-dimethylthiazol-2-yl)-2,5-diphenyl-2H-tetrazolium bromide), is a yellow substrate that is cleaved by cells with active mitochondria to yield a dark blue/purple formazan product. […] The amount of color is proportional to the number of viable cells. This assay system is used to assess the effect of test compounds on cell viability in vitro.
SKW3 cells, which express LFA-1, are used. Cells used in each assay were adjusted to 1.25·10^6 cells/mL and 100 μL of this stock is dispersed into each well of a 96 well, flat bottom microtiter plate. For each condition in a particular experiment, triplicate wells are set up. Serial dilutions of each test compound or vehicle alone are added to each well. Cells are incubated with compound for 4-24 h at 37° C. before cell viability is assessed. Next, 10 μL of filter sterilized MTT is added to each well. The MTT stock is made in phosphate buffered saline at a concentration of 5 mg/mL. Plates are then incubated for 1 h at 37° C., 5% CO2 atmosphere. Periodically, the plates are examined for formazan crystal development.
At the end of the incubation period, formazan crystals are dissolved by the addition of 100 μL of 0.04 N HCl in iso-propyl alcohol to each well. Each well is thoroughly mixed by repeated pipetting with a multichannel pipetter. The plates are allowed to sit at room temperature for 15-20 minutes and are then read with a spectrophotometer. Absorbance is measured at the test wavelength of 570 nm. Data are reported as the concentration range (in μM) wherein 50% of the cells are no longer viable.

[2] = test system: LFA-1 dependent aggregation of JY cells; assay: JY cell homotypic aggregation assay (PMA-stimulated); type: cell-based, human; settings: Homo sapiens
From the text: This aggregation can be enhanced by the addition of phorbol esters. […] Thus, the extent of LFA-1-dependent binding may be determined by assessing the extent of spontaneous or phorbol ester-dependent aggregate formation.
An agent which interferes with LFA-1 -dependent aggregation can be identified through the use of an assay capable of determining whether the agent interferes with either spontaneous, or phorbol ester-dependent aggregation of Epstein-Barr virus transformed cells. It is preferable to employ cells of the JY cell line (Terhost, L; et aL, Proc. Natl. Acad. Sci. USA, 1976, 73, 910) for the homotypic aggregation assay. This assay, capable of measuring LFA-1 dependent aggregation, may be employed to identify agents which act as antagonists to the LFA-1 dependent aggregation. Such agents may act by impairing the ability of either LFA-1 or ICAM-1 to mediate aggregation. Thus, agents may be examined to directly determine if they are antagonists of LFA-1 aggregation.
(§1) Description of Assay Protocol:
JY cells are cultured in RPMI 1640 culture medium supplemented with 10% fetal calf serum and 50 μg/mL gentamycin. The cells are cultured at 37° C. in an atmosphere of 5% CO2 at a relative humidity of 95%. JY cells used in this assay are washed two times with RPMI 1640 medium containing 5 mM HEPES buffer and resuspended to a concentration of 2·10^6 cells/mL. Added to flat-bottomed, 96-well microtiter plates are 50 μL of test compound diluted in complete medium, 50 μL of complete medium with or without purified monoclonal antibodies (negative and positive controls for inhibition, respectively), 50 μL of complete medium containing 200 ng/mL of the phorbol ester phorbol myristate acetate (PMA) and 100 μL of cells at a concentration of 2·10^6 cells/mL in complete medium. This yields a final concentration of […] PMA and 2·10^5 cells/well. Cells are allowed to settle spontaneously, and the degree of aggregation is scored at various time points. […] This procedure has been described by Rothlein, R. R.; et al., J. Exp. Med. 1986, 163, 1132-1149. This paper also reported that antibody to LFA-1 is capable of inhibiting the formation of aggregates.
(§2) Data are reported as the concentration or concentration range (in μM) at which 50% of binding is inhibited.

[3] = biological target: T1, interaction of ICAM-1 with the Leukointegrin CD18/CD11a (LFA-1) (Homo sapiens, UniProt P05107+P20701); assay: Assay to determine inhibition of LFA-1 binding to ICAM-1 (immunopurified LFA-1 on plate-bound sICAM-1, ELISA readout); settings: values marked e approximated from incomplete dose-response curve
T1 construct: endogenous in cells; sICAM-1: made in house, secreted from transfected CHO DUX cells

[4] = test system: cell bound fibronectin receptor (VLA4) with fibronectin, SKW3 cells; assay: Inhibition of SKW3 cell binding to fibronectin (selectivity counter-assay); type: cell-based, human; settings: for Assay to Detect SKW3 Cells Binding to FIBRONECTIN IC50: values marked c: no inhibition observed up to highest dose; for pIC50: Homo sapiens, SKW3, values marked c: no inhibition observed up to highest dose, read-out: Assay to Detect SKW3 Cells Binding to FIBRONECTIN IC50
From the text: (§3) Assay to Determine Inhibition of SKW3 cell binding to ICAM-1 vs. Binding to Fibronectin
(§4) This assay is used to test the selective ability of a test compound to antagonize the interaction of a cell bound form of LFA-1 with ICAM-1. The assay uses a human T cell line, SKW3 cells which express CD18, CD11a and other integrins not related to CD18, CD11a and which can be “activated” by phorbol esters. Phorbol esters enhance the affinity of CD18, CD11a for ICAM-1.
(§5) This same lymphocyte line, SKW3, also adheres to fibronectin in the presence of phorbol esters. This adhesion is mediated by membrane proteins independent of the LFA-1/ICAM-1 interaction. The SKW3 cells express another integrin, VLA4, which is the receptor for fibronectin. Therefore, as a preliminary indication of the selectivity of a test compounds to interfere with Leukointegrin/CAM interactions but not other integrin-ligand binding events, a compound can be tested for its ability to antagonize cell bound fibronectin receptor in its interaction with purified fibronectin. Compounds that inhibit this fibronectin adhesion are not specific antagonists of the CD18, CD11a/ICAM-1 binding.
as §1
(§6) Ninety-six well plates are coated with either sICAM-1(40 μg/mL) or fibronectin (100 μg/mL) in Diluting buffer for 1 h at room temperature. Added to the wells are 100 μL of the appropriately diluted test compound or 100 μL of RPMI with 15% fetal bovine serum as a control. SKW3 cells, which express CD18, CD11a and VLA4 (Dustin, M.; et al., J. Exp. Med. 1987, 165, 672-692) are washed and suspended to a concentration of 10^6 cells/mL in RPMI with 15% fetal bovine serum. Immediately before adding the cells to the wells, cells are stimulated with the phorbol ester 12-myristate 13-acetate (PMA) for a final concentration of […]. 100 μL of cells are then added to the wells resulting in a final concentration of […]. The plates are incubated for 2 h at 37° C. Unbound or loosely bound cells are gently washed away with RPMI.
as §2

[5] = test system: cell bound form of LFA-1 (CD18, CD11a) with ICAM-1, SKW3 cells; assay: Inhibition of SKW3 cell binding to ICAM-1 (PMA-stimulated); type: cell-based, human; settings: Homo sapiens, SKW3, values marked c: no inhibition observed up to highest dose; read-out: Assay to Detect SKW3 Cells Binding to ICAM IC50
From the text: as §3, §4, §5, §1, §6, §2

T1 sequence (P20701 26-1170): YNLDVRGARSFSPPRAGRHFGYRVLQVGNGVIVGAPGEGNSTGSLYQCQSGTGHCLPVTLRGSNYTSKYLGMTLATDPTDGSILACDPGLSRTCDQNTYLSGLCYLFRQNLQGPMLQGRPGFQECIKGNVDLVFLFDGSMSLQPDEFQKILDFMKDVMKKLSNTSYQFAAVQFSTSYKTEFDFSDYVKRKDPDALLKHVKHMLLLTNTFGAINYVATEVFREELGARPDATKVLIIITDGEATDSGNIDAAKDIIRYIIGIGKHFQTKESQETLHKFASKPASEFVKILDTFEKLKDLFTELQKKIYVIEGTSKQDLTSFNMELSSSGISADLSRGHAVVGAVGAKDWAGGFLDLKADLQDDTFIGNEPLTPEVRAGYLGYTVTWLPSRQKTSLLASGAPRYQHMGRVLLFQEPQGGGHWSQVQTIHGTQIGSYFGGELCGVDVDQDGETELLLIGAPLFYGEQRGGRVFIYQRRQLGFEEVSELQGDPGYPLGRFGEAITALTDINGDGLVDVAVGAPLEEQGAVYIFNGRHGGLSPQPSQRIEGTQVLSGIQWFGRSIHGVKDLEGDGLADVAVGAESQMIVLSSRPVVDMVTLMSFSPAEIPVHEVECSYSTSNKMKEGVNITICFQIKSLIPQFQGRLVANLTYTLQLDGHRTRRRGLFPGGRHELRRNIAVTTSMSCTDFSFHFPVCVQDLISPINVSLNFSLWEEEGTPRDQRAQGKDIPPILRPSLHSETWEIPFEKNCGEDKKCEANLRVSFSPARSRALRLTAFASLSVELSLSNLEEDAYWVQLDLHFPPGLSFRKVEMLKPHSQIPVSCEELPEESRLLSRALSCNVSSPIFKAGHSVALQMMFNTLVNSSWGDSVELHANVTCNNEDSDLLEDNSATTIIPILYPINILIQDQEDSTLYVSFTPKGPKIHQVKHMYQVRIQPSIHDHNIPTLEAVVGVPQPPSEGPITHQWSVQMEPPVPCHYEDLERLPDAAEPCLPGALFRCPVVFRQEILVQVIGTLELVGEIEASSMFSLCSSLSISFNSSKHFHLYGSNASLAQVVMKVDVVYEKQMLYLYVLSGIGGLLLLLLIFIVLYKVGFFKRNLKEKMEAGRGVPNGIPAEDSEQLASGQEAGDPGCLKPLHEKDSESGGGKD
T1 sequence (P05107 23-769): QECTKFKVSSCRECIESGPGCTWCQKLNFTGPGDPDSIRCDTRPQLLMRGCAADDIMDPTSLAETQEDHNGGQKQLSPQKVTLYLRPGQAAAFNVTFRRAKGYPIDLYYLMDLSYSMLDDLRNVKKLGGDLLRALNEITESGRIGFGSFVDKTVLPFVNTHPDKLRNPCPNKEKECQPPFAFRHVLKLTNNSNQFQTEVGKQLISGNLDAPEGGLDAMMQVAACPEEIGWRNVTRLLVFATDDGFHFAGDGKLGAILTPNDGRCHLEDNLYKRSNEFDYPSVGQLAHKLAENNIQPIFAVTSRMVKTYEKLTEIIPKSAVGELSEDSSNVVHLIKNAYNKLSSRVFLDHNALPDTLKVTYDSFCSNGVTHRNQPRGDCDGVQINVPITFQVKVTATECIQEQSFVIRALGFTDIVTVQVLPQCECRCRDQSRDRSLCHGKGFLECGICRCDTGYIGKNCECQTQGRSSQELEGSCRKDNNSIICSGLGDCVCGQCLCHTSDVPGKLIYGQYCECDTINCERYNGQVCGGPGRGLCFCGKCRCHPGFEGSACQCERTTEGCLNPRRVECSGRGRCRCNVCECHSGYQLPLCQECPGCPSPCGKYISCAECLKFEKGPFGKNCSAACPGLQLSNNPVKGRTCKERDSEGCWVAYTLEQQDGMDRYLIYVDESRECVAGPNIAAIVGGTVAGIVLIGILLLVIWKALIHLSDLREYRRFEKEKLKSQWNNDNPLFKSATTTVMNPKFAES

SMILES | Cellular Toxicity Assay MTT LD50 [1] | pIC50 [2] | pKd [3] | Assay to Detect SKW3 Cells Binding to FIBRONECTIN IC50 [4] | pIC50 [5] | pIC50 [4]
C[C@@]1(Cc2ccc(Br)cc2)C(=O)N(c2cc(Cl)cc(Cl)c2)C(=O)N1Cc1cccnc1 [Example 111] | 36 µM | 4.12 | 6.72 | No inh^c | 5.52 | 
CC(=O)CN1C(=O)N(c2cc(Cl)cc(Cl)c2)C(=O)[C@@]1(C)Cc1ccc(Br)cc1 [Example 117] | 12 µM | 5.66 | 5.96 |  | 4.92 | 4.92
CN1C(=O)N(c2cc(Cl)cc(Cl)c2)C(=O)[C@@]1(C)Cc1cc(Br)cc(Br)c1 [Example 118] | 200 to 400 µM | 5.47 | 6.34 |  | < 4.00 | < 4.00
C[C@@]1(Cc2ccc(Br)cc2)C(=O)N(c2cc(Cl)cc(Cl)c2)C(=O)N1CCCCCCl [Example 121] | <11 µM | 4.60 | 6.68 | No inh^c | 5.70 to 6.10 | 
Cc1cc(Br)cc(C)c1C[C@]1(C)C(=O)N(c2cc(Cl)cc(Cl)c2)C(=O)N1C [Example 122] | 200 to 400 µM | 5.74 | 6.89 | No inh^c | 4.60 to 4.92 | 
CN1C(=O)N(c2cc(Cl)c(F)c(Cl)c2)C(=O)[C@@]1(C)Cc1ccc(Br)cc1 [Example 124] | 100 to 200 µM | 7.00 | 7.52 | No inh^c | 5.82 | 
CN1C(=O)N(c2cc(Cl)cc(Cl)c2)C(=O)[C@@]1(C)Cc1ccc(C#N)cc1 [Example 127] | 125 to 250 µM | 7.00 | 7.30 | No inh^c | 5.80 to 6.10 | 
CC(=O)N1C(=O)N(c2cc(Cl)cc(Cl)c2)C(=O)[C@@]1(C)Cc1ccc(C#N)cc1 [Example 128] | 125 to 250 µM | 7.00 | 6.80 | No inh^c | 5.82 | 
COCN1C(=O)N(c2cc(Cl)cc(Cl)c2)C(=O)[C@@]1(C)Cc1ccc(Br)cc1 [Example 131] | >400 µM | 5.96 | 6.70 | No inh^c | 5.30 to 5.52 | 
C[C@@]1(Cc2ccc(Br)cc2)C(=O)N(c2cc(Cl)cc(Cl)c2)C(=O)N1C[C@H](O)c1ccccc1 [Example 132] | 200 to 400 µM | 5.62 | 6.66 | No inh^c | 5.30 | 
C[C@@]1(Cc2ccc(Br)cc2)C(=O)N(c2cc(Cl)cc(Cl)c2)C(=O)N1C[C@@H](O)c1ccccc1 [Example 133] | >400 µM | 6.40 | 6.82 | No inh^c | 5.00 to 5.30 | 
CN1C(=O)N(c2cc(Cl)cc(Cl)c2)C(=O)[C@@]1(C)Cc1ccc([N+](=O)[O-])cc1 [Example 134] | >250 µM | 7.00 | 7.30 | No inh^c | 5.82 | 
CC(=O)N1C(=O)N(c2cc(Cl)cc(Cl)c2)C(=O)[C@@]1(C)Cc1ccc([N+](=O)[O-])cc1 [Example 135] | >400 µM | 5.77 | 6.70 | No inh^c | 4.60 | 
CCCN1C(=O)N(c2cc(Cl)cc(Cl)c2)C(=O)C1(C)Cc1ccc(Br)cc1 (stereo not drawn) [Example 137] | 200 to 400 µM | 6.40 | 7.40 | No inh^c | 5.52 to 6.00 | 
COC(=O)c1ccc(CC2(C)C(=O)N(c3cc(Cl)cc(Cl)c3)C(=O)N2C)cc1 (stereo not drawn) [Example 140] | 180 to 360 µM | 6.70 | 6.96 |  | 5.92 | < 5.00
CC(C)N1C(=O)N(c2cc(Cl)cc(Cl)c2)C(=O)C1(C)Cc1ccc(Br)cc1 (stereo not drawn) [Example 141] | 300 µM | 7.00 | 6.66 |  | 4.82 | < 4.82
CN1C(=O)N(c2cc(Cl)cc(Cl)c2)C(=O)C1(C)Cc1cccc(Br)c1 (stereo not drawn) [Example 149] | 170 to 340 µM | 5.54 | 6.70 |  | 5.00 | < 5.00
CN1C(=O)N(c2cc(Cl)cc(Cl)c2)C(=O)C1(C)Cc1ccc(Cl)cc1 (stereo not drawn) [Example 154] | 200 µM | 6.40 | 7.03 | No inh^c | 5.00 to 5.30 | 
CN1C(=O)N(c2cc(Cl)c(Cl)c(Cl)c2)C(=O)C1(C)Cc1ccc(Br)cc1 (stereo not drawn) [Example 159] | 50 to 100 µM | 5.70 | 6.96 | No inh^c | 4.70 to 5.00 | 
Cc1cccc(C)c1CC1(C)C(=O)N(c2cc(Cl)cc(Cl)c2)C(=O)N1C (stereo not drawn) [Example 163] | 200 to 400 µM | 5.62 | 6.80 |  | 4.72 to 5.05 | < 4.12
CN1C(=O)N(c2cc(Cl)cc(Cl)c2)C(=O)C1(C)Cc1cc(Br)cc(Br)c1 (stereo not drawn) [Example 164] | 100 to 200 µM | 4.60 | 6.55 | No inh^c | < 4.00 | 
CN1C(=O)N(c2cc(Cl)cc(Cl)c2)C(=O)C1(C)Cc1ccc(C(F)(F)F)cc1 (stereo not drawn) [Example 171] | 100 to 200 µM | 6.70 | 6.74 | No inh^c | 3.99 | 
CCC1(Cc2ccc(Br)cc2)C(=O)N(c2cc(Cl)cc(Cl)c2)C(=O)N1C (stereo not drawn) [Example 172] | 165 µM | 6.15 | 6.77 | No inh^c | 5.74 | 
CCCC1(Cc2ccc(Br)cc2)C(=O)N(c2cc(Cl)cc(Cl)c2)C(=O)N1C (stereo not drawn) [Example 173] | 200 to 400 µM | 5.66 | 6.77 | No inh^c | 5.32 | 
